US6780650B2 (priority 2000, dated 2004)
Where two headings read alike, the source gives them in different places.

Tests used:
[1] = target: T1, hVR1 receptor (Homo sapiens, UniProt Q8NER1); format: binding; conditions: for Kd: read-out: Kd of [^3H]RTX binding to hVR1 receptor
T1 construct: expressed in transfected cells; host or cells: HEK 293 (HEK 293-hVR1, zeocin-selected); membranes

[2] = target: T1, hVR1 receptor; format: binding; conditions: pH 8
[3] = target: T1, hVR1 receptor; conditions: read-out: IC50, inhibition of [^3H]RTX binding to hVR1 receptor

T1 sequence (Q8NER1 whole entry): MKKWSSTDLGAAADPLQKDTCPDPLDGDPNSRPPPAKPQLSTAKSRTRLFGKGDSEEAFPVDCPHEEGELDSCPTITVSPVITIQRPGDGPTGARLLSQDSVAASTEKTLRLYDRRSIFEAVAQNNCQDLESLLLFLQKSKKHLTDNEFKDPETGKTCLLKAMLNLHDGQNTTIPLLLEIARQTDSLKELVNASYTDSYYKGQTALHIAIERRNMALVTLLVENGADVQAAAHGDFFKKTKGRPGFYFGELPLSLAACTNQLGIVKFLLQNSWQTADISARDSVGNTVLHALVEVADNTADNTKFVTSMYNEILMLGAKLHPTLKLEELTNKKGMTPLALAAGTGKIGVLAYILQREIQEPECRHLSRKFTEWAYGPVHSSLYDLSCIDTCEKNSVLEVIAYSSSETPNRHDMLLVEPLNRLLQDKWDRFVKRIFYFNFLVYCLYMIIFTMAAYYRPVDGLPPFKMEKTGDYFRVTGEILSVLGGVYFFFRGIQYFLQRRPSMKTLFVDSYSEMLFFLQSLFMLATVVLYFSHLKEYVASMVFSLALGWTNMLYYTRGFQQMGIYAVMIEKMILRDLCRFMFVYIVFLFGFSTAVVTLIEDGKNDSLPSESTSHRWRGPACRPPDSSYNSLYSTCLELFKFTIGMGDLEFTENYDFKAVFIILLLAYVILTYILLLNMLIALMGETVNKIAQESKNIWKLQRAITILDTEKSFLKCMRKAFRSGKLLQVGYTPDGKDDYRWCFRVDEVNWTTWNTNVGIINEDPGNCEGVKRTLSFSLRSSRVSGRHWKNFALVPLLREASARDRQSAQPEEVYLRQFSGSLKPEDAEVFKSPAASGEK

Compound: C=C(C)[C@]12C[C@@H](C)[C@@]34O[C@](Cc5ccccc5)(O[C@@H]1[C@@H]3C=C(COC(=O)Cc1ccc(O)c(OC)c1)C[C@]1(O)C(=O)C(C)=C[C@@H]41)O2 [[^3H]RTX, [^3H]resiniferatoxin]
- Kd ([1]; pH 5.1): 6.62 ± 5.58 nM
- Bmax of [^3H]RTX binding to hVR1 receptor ([1]; pH 7.4): 928 ± 53 fmol/mg protein
- Kd ([1]; pH 7.4): 0.65 ± 0.12 nM
- Bmax of [^3H]RTX binding to hVR1 receptor ([1]; pH 8.6): 869 ± 41 fmol/mg protein
- Kd ([1]; pH 8.6): 0.18 ± 0.04 nM
- Bmax of [^3H]RTX binding to hVR1 receptor ([1]; pH 9.6): 661 ± 127 fmol/mg protein
- Kd ([1]; pH 9.6): 0.6 ± 0.31 nM

Compound: O=C(O)CN(CCOCCOCCN(CC(=O)O)CC(=O)O)CC(=O)O [EGTA]
- inhibition of [^3H]RTX binding [2]: 70%

Compound: C=C(C)[C@]12C[C@@H](C)[C@@]34O[C@](Cc5ccccc5)(O[C@@H]1[C@@H]3C=C(COC(=O)Cc1ccc(O)c(OC)c1)C[C@]1(O)C(=O)C(C)=C[C@@H]41)O2 [Resiniferatoxin]
- IC50 ([3]; pH 7.4): 0.78 ± 0.15 nM
- IC50 ([3]; pH 8.6): 0.25 ± 0.03 nM
